One assay concerns HSP72 in U2OS cells. The assay can be described thus: Cell-based ELISA (Cellisa) assay, U2OS cells: inhibition of 17-AAG-induced HSP72. The note with it: U2OS cells (Examples 1-168). As to the method: U2OS cells (5-8×10^4 cells/mL) or SK-OV-3 cells (5-8×10^4 cells/mL) were seeded into 96-well plates and incubated at 37° C. for 48 h. Compounds were then added at a range of concentrations and incubated for 1 h before addition of 17-AAG (250 nM). Cells were then incubated for 18 h. The medium was removed washed 2× with PBS and cells were then fixed with fixing solution (4% paraformaldehyde, 0.3% TritonX-100 in PBS) for 30 min at 4° C. The plates were then washed 2× with PBS before blocking with 5% milk for 30 min at 37° C. After washing the plates 4× with 0.1% Tween-20/deionised water, HSP72 antibody (SPA-810, Enzo Life) was added for 1.5 h at 37° C. Following 4× washes, the plates were incubated with europium-labelled anti-mouse antibody (0.6 ug/ml) in Delfia assay buffer (Perkin Elmer) for 1 h at 37° C. After washing the plates, Delfia enhancement solution was added, shaken for 10 min before reading in the Envision plate reader (Perkin-Elmer) with excitation at 340 nm and emission at 615 nm. The plates were washed again before protein determination using the bicinchoninic acid assay (BCA assay, Pierce Biotechnology). The europium counts were normalised for the amount of protein in each well. The 50% inhibitory concentration value of the compound was then calculated.

The next assay deals with U2OS cells. The assay is described as follows: Titre Blue cell viability assay, U2OS cells. It counts as cell-based.

Like-named read-outs stand apart in the source and are kept apart here.

The term IC50 denotes the midpoint of a concentration-inhibition curve. A low value points to greater potency.

In the case of “2-(2-aminoethoxy)-N-(5-(2,3-dihydrobenzo[b][1,4]dioxine-6-carboxamido)-2-methyl)phenyl)quinoline-6-carboxamide [Example 89]”, the IC50 is 0.013 µM in the assay with HSP72 in U2OS cells and 0.015 µM in the assay on U2OS cells. For `COCCOc1ccc2cc(C(=O)Nc3cc(NC(=O)c4ccc5c(c4)OCCO5)ccc3C)ccc2n1` [Example 3, N-(5-(2,3-dihydrobenzo[b][1,4]dioxine-6-carboxamido)-2-methylphenyl)-2-(2-methoxyethoxy)quinoline-6-carboxamide], the IC50 was determined as 0.007 µM in the assay on HSP72 in U2OS cells (Homo sapiens) and 0.029 µM in the assay with U2OS cells (Homo sapiens, U2OS). In the same order, the values of `Cc1ccc(NC(=O)c2ccc3c(c2)OCCO3)cc1NC(=O)c1ccc2oc(=O)ccc2c1` [Example 4, N-(4-methyl-3-(2-oxo-2H-chromene-6-carboxamido)phenyl)-2,3-dihydrobenzo[b][1,4]dioxine-6-carboxamide] are 0.01 µM and 0.018 µM.

Consider `COc1ccc(C(=O)Nc2cc(NC(=O)c3ccc4c(c3)OCCO4)ccc2C)cc1OC` [Example 5, N-(3-(3,4-dimethoxybenzamido)-4-methylphenyl)-2,3-dihydrobenzo[b][1,4]dioxine-6-carboxamide], for which the IC50 came out at 0.053 µM in the assay with HSP72 in U2OS cells (Homo sapiens) and 0.047 µM in the assay on U2OS cells (Homo sapiens, U2OS). For `Cc1ccc(NC(=O)c2ccc3c(c2)OCCO3)cc1NC(=O)c1ccc2c(c1)CCO2` [Example 6, N-(3-(2,3-dihydrobenzofuran-5-carboxamido)-4-methylphenyl)-2,3-dihydrobenzo[b][1,4]dioxine-6-carboxamide], in that order: 0.017 µM and 0.077 µM. In the same order, the values of `Cc1ccc(NC(=O)c2ccc3c(c2)OCCO3)cc1NC(=O)c1ccc2c(c1)CCN2C` [Example 7, N-(5-(2,3-dihydrobenzo[b][1,4]dioxine-6-carboxamido)-2-methylphenyl)-1-methylindoline-5-carboxamide] are 0.055 µM and 0.037 µM.

For the molecule `Cc1ccc(NC(=O)c2ccc3c(c2)OCCO3)cc1NC(=O)c1ccc2c(c1)COC2=O` [Example 8, N-(4-methyl-3-(1-oxo-1,3-dihydroisobenzofuran-5-carboxamido)phenyl)-2,3-dihydrobenzo[b][1,4]dioxine-6-carboxamide], the IC50 with HSP72 in U2OS cells (Homo sapiens) worked out at 0.205 µM; with U2OS cells (Homo sapiens, U2OS) it was 0.108 µM. For `Cc1ccc(NC(=O)c2ccc3c(c2)OCCO3)cc1NC(=O)c1ccc2c(c1)CCCO2` [Example 9, N-(3-(chroman-6-carboxamido)-4-methylphenyl)-2,3-dihydrobenzo[b][1,4]dioxine-6-carboxamide], in that order: 0.022 µM and 0.09 µM. For `Cc1ccc(NC(=O)c2ccc3c(c2)OCCO3)cc1NC(=O)c1ccc2ncncc2c1` [Example 10, N-(5-(2,3-dihydrobenzo[b][1,4]dioxine-6-carboxamido)-2-methylphenyl)quinazoline-6-carboxamide], in that order: 0.029 µM and 0.015 µM. In the same order, the values of `COc1ccnc2ccc(C(=O)Nc3cc(NC(=O)c4ccc5c(c4)OCCO5)ccc3C)cc12` [Example 11, N-(5-(2,3-dihydrobenzo[b][1,4]dioxine-6-carboxamido)-2-methylphenyl)-4-methoxyquinoline-6-carboxamide] are 0.038 µM and 0.095 µM.

`Cc1ccc(NC(=O)c2ccc3c(c2)OCCO3)cc1NC(=O)c1ccc(OCc2cscn2)nc1` [Example 13, N-(5-(2,3-dihydrobenzo[b][1,4]dioxine-6-carboxamido)-2-methylphenyl)-6-(thiazol-4-ylmethoxy)nicotinamide]: the IC50 was determined as 0.262 µM in the assay on HSP72 in U2OS cells (Homo sapiens) and 0.217 µM in the assay with U2OS cells (Homo sapiens, U2OS).

`Cc1ccc(NC(=O)c2ccc3c(c2)OCCO3)cc1NC(=O)c1ccc2c(c1)CC(C)O2` (stereo not shown) [Example 14, N-(4-methyl-3-(2-methyl-2,3-dihydrobenzofuran-5-carboxamido)phenyl)-2,3-dihydrobenzo[b][1,4]dioxine-6-carboxamide]: the IC50 with HSP72 in U2OS cells (Homo sapiens) was found to be 0.081 µM; with U2OS cells (Homo sapiens, U2OS) it was 0.094 µM. In the same order, the values of `Cc1ccc(NC(=O)c2ccc3c(c2)OCCO3)cc1NC(=O)c1ccc2c(c1)COC2` [Example 15, N-(3-(1,3-dihydroisobenzofuran-5-carboxamido)-4-methylphenyl)-2,3-dihydrobenzo[b][1,4]dioxine-6-carboxamide] are 0.076 µM and 0.075 µM. On to `Cc1ccc(NC(=O)c2ccc3c(c2)OCCO3)cc1NC(=O)c1ccc2c(ccn2C)c1` [Example 16, N-(5-(2,3-dihydrobenzo[b][1,4]dioxine-6-carboxamido)-2-methylphenyl)-1-methyl-1H-indole-5-carboxamide], for which the 50% inhibitory concentration (IC50) with HSP72 in U2OS cells (Homo sapiens) came out at 0.094 µM; in the assay with U2OS cells (Homo sapiens, U2OS), 0.031 µM. For `Cc1ccc(NC(=O)c2ccc3c(c2)OCCO3)cc1NC(=O)c1ccc2occc2c1` [Example 17, N-(3-(benzofuran-5-carboxamido)-4-methylphenyl)-2,3-dihydrobenzo[b][1,4]dioxine-6-carboxamide], in that order: 0.097 µM and 0.073 µM.

Consider `Cc1ccc(NC(=O)c2ccc3c(c2)OCCO3)cc1NC(=O)c1ccc2nc(C(F)(F)F)[nH]c2c1` [Example 90, N-(5-(2,3-dihydrobenzo[b][1,4]dioxine-6-carboxamido)-2-methylphenyl)-2-(trifluoromethyl)-1H-benzo[d]imidazole-6-carboxamide], for which the IC50 in the assay with U2OS cells (Homo sapiens, U2OS) is 1.36 µM. On the same count and under the same terms, with `Cc1ccc(NC(=O)c2ccc3c(c2)OCCO3)cc1NC(=O)c1ccc(Nc2cccc(OC3CCN(C)CC3)c2)nc1` [Example 121, N-(5-(2,3-dihydrobenzo[b][1,4]dioxine-6-carboxamido)-2-methylphenyl)-6-(3-(1-methylpiperidin-4-yloxy)phenylamino)nicotinamide] the figure was 0.338 µM. The molecule `Cc1ccc2cc(C(=O)Nc3cc(NC(=O)c4cc5c(cc4F)OCCO5)ccc3C)ccc2n1` [Example 130, N-(5-(7-fluoro-2,3-dihydrobenzo[b][1,4]dioxine-6-carboxamido)-2-methylphenyl)-2-methylquinoline-6-carboxamide] came in with a half-inhibitory concentration (IC50) in the assay on HSP72 in U2OS cells (Homo sapiens) of 0.156 µM. Still for that read-out and setting: with `Cc1ccc2cc(C(=O)Nc3cc(NC(=O)c4ccc5c(c4)OCCCO5)ccc3C)ccc2n1` [Example 132, N-(5-(3,4-dihydro-2H-benzo[b][1,4]dioxepine-7-carboxamido)-2-methylphenyl)-2-methylquinoline-6-carboxamide] the figure was 0.226 µM. Still for that read-out and setting: to `Cc1ccc(NC(=O)c2ccc3c(c2)OCCO3)cc1NC(=O)c1ccc2nc(C(C)O)ccc2c1` (stereo not shown) [Example 142, N-(5-(2,3-dihydrobenzo[b][1,4]dioxine-6-carboxamido)-2-methylphenyl)-2-(1-hydroxyethyl)quinoline-6-carboxamide] belongs 0.051 µM.

Molecule `COC(C)c1ccc2cc(C(=O)Nc3cc(NC(=O)c4ccc5c(c4)OCCO5)ccc3C)ccc2n1` (stereo not shown) [Example 153, N-(5-(2,3-dihydrobenzo[b][1,4]dioxine-6-carboxamido)-2-methylphenyl)-2-(1-methoxyethyl)quinoline-6-carboxamide] gave an IC50 in the assay with HSP72 in U2OS cells (Homo sapiens) of 0.14 µM. On the same count and under the same terms, with `Cc1ccc(NC(=O)c2ccc3c(c2)OCCO3)cc1NC(=O)c1ccc2c(c1)CC[C@H](C)N2` [Example 154, (S)—N-(5-(2,3-dihydrobenzo[b][1,4]dioxine-6-carboxamido)-2-methylphenyl)-2-methyl-1,2,3,4-tetrahydroquinoline-6-carboxamide] the figure was 0.145 µM. The same measure, in the same setting: to `Cc1ccc(NC(=O)c2ccc3c(c2)OCCO3)cc1NC(=O)c1ccc2c(c1)CC[C@@H](C)N2` [Example 155, (R)—N-(5-(2,3-dihydrobenzo[b][1,4]dioxine-6-carboxamido)-2-methylphenyl)-2-methyl-1,2,3,4-tetrahydroquinoline-6-carboxamide] belongs 0.227 µM. Still for that read-out and setting: to `Cc1ccc(NC(=O)c2ccc3c(c2)OCCO3)cc1NC(=O)c1cnc2cccc(CCO)c2c1` [Example 157, N-(5-(2,3-dihydrobenzo[b][1,4]dioxine-6-carboxamido)-2-methylphenyl)-5-(2-hydroxyethyl)quinoline-3-carboxamide] belongs 0.221 µM. As to `Cc1ccc(NC(=O)c2ccc3c(c2)OCCO3)cc1NC(=O)c1ccc2c(c1)CCC(C)N2C` (stereo not shown) [Example 159, N-(5-(2,3-dihydrobenzo[b][1,4]dioxine-6-carboxamido)-2-methylphenyl)-1,2-dimethyl-1,2,3,4-tetrahydroquinoline-6-carboxamide], 0.345 µM corresponded to half-maximal inhibition in the assay with HSP72 in U2OS cells (Homo sapiens) (IC50).

In the case of `COCCOc1cc(C(=O)Nc2cc(NC(=O)c3ccc4c(c3)OCCO4)ccc2C)cc2cccnc12` [Example 160, N-(5-(2,3-dihydrobenzo[b][1,4]dioxine-6-carboxamido)-2-methylphenyl)-8-(2-methoxyethoxy)quinoline-6-carboxamide], half-maximal inhibition in the assay on HSP72 in U2OS cells (Homo sapiens) (IC50) was put at 0.383 µM. This IC50 and that of the molecule before are within 1.5-fold of each other.

In the case of `Cc1ccc(NC(=O)c2ccc3c(c2)OCCO3)cc1NC(=O)c1cc(N(C)CCN(C)C)c2ncccc2c1` [Example 162, N-(5-(2,3-dihydrobenzo[b][1,4]dioxine-6-carboxamido)-2-methylphenyl)-8-((2-(dimethylamino)ethyl)(methyl)amino)quinoline-6-carboxamide], the 50% inhibitory concentration (IC50) with HSP72 in U2OS cells (Homo sapiens) was 0.984 µM. This IC50 lies about 2.6-fold higher than the previous one. On to “N-(5-(2,3-dihydrobenzo[b][1,4]dioxine-6-carboxamido)-2-methyl)phenyl)-2-methyl-4-(2-(pyrrolidin-1-yl)ethoxy)quinoline-6-carboxamide [Example 120]”, for which it took 2.73 µM to reach half-maximal inhibition in the assay with HSP72 in U2OS cells (IC50).

These data come from patent US9701664B2, “Fused 1,4-dihydrodioxin derivatives as inhibitors of heat shock transcription factor 1” (Cancer Research Technology Limited, priority 2013, dated 2017).
